Measurements reported in ChEMBL document CHEMBL1142580, “Malettinins B-D: new polyketide metabolites from an unidentified fungal colonist of Hypoxylon Stromata (NRRL 29110)” (2005).

Experiments:
Format in all cases: functional
Settings in all cases: read-out: IZ
Candida albicans = test: Antimicrobial activity against Candida albicans ATCC 90029 at 250 ug/disk by standard disk assay
Staphylococcus aureus = test: Antimicrobial activity against Staphylococcus aureus ATCC 29213 at 200 ug/disk by standard disk assay
Bacillus subtilis = test: Antimicrobial activity against Bacillus subtilis ATCC 6051 at 200 ug/disk by standard disk assay

| Structure (SMILES) | zone of inhibition at 250 µg/disc (Candida albicans) [mm] | zone of inhibition at 200 µg/disc (Staphylococcus aureus) [mm] | zone of inhibition at 200 µg/disc (Bacillus subtilis) [mm] |
| --- | --- | --- | --- |
| Cc1cc(=O)c(O)cc2c1C[C@@H](C)[C@]1(OC[C@@H](C)[C@H]1O)O2 [MALETTININ B] | 19 | 24 | 26 |
| Cc1cc(=O)c(O)cc2c1C[C@@H](C)[C@@]1(OC[C@@H](C)[C@H]1O)O2 [MALETTININ C] | 13 | 12 | 15 |
